Experiment [1] has as its target Human immunodeficiency virus type 1 integrase (Human immunodeficiency virus 1) (UniProt Q7ZJM1). The experiment is described as follows: Inhibition of 3' processing step useful in the integration of viral DNA into host cell DNA by inhibiting HIV integrase by compound.
The target is the same in experiment [2]. Briefly: Inhibition of strand transfer step useful in the integration of viral DNA into host cell DNA by inhibiting HIV integrase by compound.

Some results are limits rather than exact numbers.

Results on 6 compounds are retold here after ChEMBL document CHEMBL1133376, “Recognition and inhibition of HIV integrase by a novel dinucleotide” (Bioorg Med Chem Lett, 2000).

Sequence of Human immunodeficiency virus type 1 integrase (Human immunodeficiency virus 1) (Q7ZJM1 as listed by the source): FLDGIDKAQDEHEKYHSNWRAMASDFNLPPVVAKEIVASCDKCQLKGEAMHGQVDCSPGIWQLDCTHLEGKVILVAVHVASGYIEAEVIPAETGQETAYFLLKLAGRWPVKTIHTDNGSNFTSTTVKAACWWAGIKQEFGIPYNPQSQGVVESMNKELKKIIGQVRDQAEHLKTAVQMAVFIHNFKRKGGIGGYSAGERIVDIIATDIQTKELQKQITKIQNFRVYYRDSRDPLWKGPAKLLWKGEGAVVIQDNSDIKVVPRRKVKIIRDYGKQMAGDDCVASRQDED

As for `Nc1ccn([C@H]2C[C@H](O)[C@@H](COP(=O)(O)O[C@H]3[C@H](n4cnc5c(N)ncnc54)CO[C@@H]3COP(=O)(O)O)O2)c(=O)n1`, the figures for the Inhibitory activity in experiment [1] and in experiment [2] were 19 µM and 25 µM, respectively.
Consider `Nc1ncnc2c1ncn2C1COC(COP(=O)(O)O)C1O` (configuration not stated), for which the Inhibitory activity in experiment [1] and in experiment [2] was above 200 µM in each case.
In the case of `Nc1ccn([C@H]2C[C@H](O)[C@@H](COP(=O)(O)O[C@H]3C[C@H](n4cnc5c(N)ncnc54)O[C@@H]3COP(=O)(O)O)O2)c(=O)n1`, the Inhibitory activity in experiment [1] came out at 6 µM; in experiment [2] it was 3 µM.
Turning to `Nc1ccn(C2CCC(COP(=O)(O)O)O2)c(=O)n1` (configuration not stated), the Inhibitory activity in experiment [1] was 50 µM; in experiment [2] it was 45 µM.
The corresponding values for `Cc1cn([C@H]2C[C@H](N=[N+]=[N-])[C@@H](COP(=O)(O)O)O2)c(=O)[nH]c1=O` are above 110 µM and 140 µM.
In the case of `Nc1ccn([C@H]2C[C@H](O)[C@@H](COP(=O)(O)O[C@H]3[C@H](n4cnc5c(N)ncnc54)CO[C@@H]3CO)O2)c(=O)n1`, the Inhibitory activity in experiment [1] and in experiment [2] was 200 µM each time.
